Read-outs that look alike come from different tables or passages of the source. Positions of bridges follow the written chain, without caps; N, C: chain ends. Residues, ends and D or L forms follow the SMILES beside them.

Results on six compounds are retold here after patent publication US12018059B2, “Human amylin analog polypeptides and methods of use” (Intarcia Therapeutics, Inc., priority 2018, dated 2024).

The data set is described as follows: Pharmacokinetics, 3-hour intravenous infusion of linear (non-acylated) polypeptides. Also noted: species or system Sprague-Dawley rats. Conditions: rat, in vivo, 0.1 mg/kg. The method, then:
Peptides were dissolved in sterile saline and administered as a 3-hour intravenous infusion to non-fasted male Sprague-Dawley rats (n=3 per group) via femoral vein cannula at a final dose of 0.100 mg/kg. […] Blood samples (approximately 250 μL) were collected for pharmacokinetic analysis via a jugular vein cannula at 0.25, 0.5, 1, 2, 3, 3.17, 3.33, 3.5, 4, 4.5, 5, and 6 hr post-start of infusion (long method) or at 1, 1.5, 2, 2.5, and 3 hr post-start of infusion (steady-state screening method). All samples were collected into microtainer tubes containing K2EDTA as anticoagulant and 25 μL of a protease inhibitor cocktail. Plasma was prepared by centrifugation and stored at −80° C. until analysis. The results of this analysis are shown in Table 9 and few exemplars in FIGS. 3a-3b.
A 60 μL aliquot of each plasma sample was placed into to a 96-well plate. To each well was added 6 μL of 0.5% Tween-20. Plates were then vortexed mixed for 10 minutes at 1200 rpm before 180 μL of 0.1% TFA in 2:1 ethanol:acetonitrile containing an appropriate internal standard was added to each well. Plates were vortex mixed for 5 min at 1300 rpm, and then centrifuged for 10 min at 2844×g. Supernatants (180 μL) were placed into a clean 96-well plate and evaporated under a nitrogen stream at 45° C. Residues were reconstituted in 80 μL of 20% acetonitrile (aq) containing 0.1% formic acid.
A […] aliquot of each plasma sample was diluted with […] of 10 mM ammonium acetate (pH 6.8) containing an appropriate internal standard and loaded onto an Oasis WCX microElution plate (Waters Corporation, Milford, MA) that had been pre-conditioned with […] of methanol and […] of deionized water. Samples were washed with […] of 5% ammonium hydroxide (aq) followed by […] of 20% acetonitrile in water. The analyte was eluted with […] of 5% formic acid in 75:25 acetonitrile:water. The eluent was dried under a nitrogen stream. Residues were reconstituted in 80 μL of 20% acetonitrile (aq) containing 0.1% formic acid.
All calibration standards were prepared in control rat plasma containing K2EDTA and protease inhibitor cocktail.
Samples and standards were analyzed by TurbolonSpray™ UPLC-MS/MS using a system consisting of a CTC HTS PAL auto-injector (Leap, Carrboro, NC), an Agilent Infinity 1290 system with column oven (Palo Alto, CA), a Valco switching valve (Houston, TX), and either an AB Sciex API 5600 TripleTOF™ or Sciex API 4000QTrap mass spectrometer (Framingham, MA). Samples were injected onto a 2.1×50 mm reverse phase C18 analytical column, typically a Waters CORTECS UPLC C18+, 1.6 μm (Waters Corporation, Milford, MA) or similar. […] Initial conditions consisted of 90% A and 10% B. The organic component was increased to 95% B over a period of 3-4 minutes, depending on the peptide. Typical flow rates were 600 μL/min. The column temperature was held constant at 40 or 50° C. Peptides were quantified by monitoring one or more product ions produced from a multiply charged parent ion.

Where [1] appears, read: linear polypeptides, 3-hour intravenous infusion, 0.100 mg/kg, male Sprague-Dawley rats, read-out: CL.

As for `CC[C@H](C)[C@H](NC(=O)[C@@H]1CCCN1C(=O)CNC(=O)[C@H](Cc1ccccc1)NC(=O)[C@H](CC(N)=O)NC(=O)[C@H](CC(N)=O)NC(=O)[C@H](CO)NC(=O)[C@H](CO)NC(=O)[C@H](CCCNC(=N)N)NC(=O)[C@H](Cc1c[nH]cn1)NC(=O)[C@H](CC(C)C)NC(=O)[C@H](CCC(=O)O)NC(=O)[C@H](CC(N)=O)NC(=O)[C@H](CO)NC(=O)[C@H](CC(C)C)NC(=O)[C@H](CCCNC(=N)N)NC(=O)[C@H](CCC(N)=O)NC(=O)[C@@H](NC(=O)[C@H](C)NC(=O)[C@@H]1CSSC[C@H](NC(=O)[C@@H](N)CO)C(=O)N[C@@H](CC(N)=O)C(=O)N[C@@H]([C@@H](C)O)C(=O)N[C@@H](CO)C(=O)N[C@@H]([C@@H](C)O)C(=O)N1)[C@@H](C)O)C(=O)N[C@@H](CC(C)C)C(=O)N1CCC[C@H]1C(=O)N1CCC[C@H]1C(=O)N[C@H](C(=O)N[C@@H](CCCCN)C(=O)N[C@H](C(=O)NCC(=O)N[C@@H](CO)C(=O)N[C@@H](CCC(=O)O)C(=O)N[C@H](C(=O)N[C@@H](Cc1ccc(O)cc1)C(N)=O)[C@@H](C)O)C(C)C)[C@@H](C)O` [Compound A34] (H-SCNTSTCATQRLSNELHRSSNNFGPILPPTKVGSETY-NH2; disulfide 2-7), the clearance (iv) was found to be 15.5 mL/min/kg.
With `CC[C@H](C)[C@H](NC(=O)[C@@H]1CCCN1C(=O)CNC(=O)[C@H](Cc1ccccc1)NC(=O)[C@H](CCC(=O)O)NC(=O)[C@H](CC(N)=O)NC(=O)[C@H](CO)NC(=O)[C@H](CO)NC(=O)[C@H](CCCNC(=N)N)NC(=O)[C@H](Cc1c[nH]cn1)NC(=O)[C@H](CC(C)C)NC(=O)[C@H](CCC(=O)O)NC(=O)[C@H](CC(N)=O)NC(=O)[C@H](C)NC(=O)[C@H](CC(C)C)NC(=O)[C@H](CCCNC(=N)N)NC(=O)[C@H](CCC(N)=O)NC(=O)[C@@H](NC(=O)[C@H](C)NC(=O)[C@@H]1CSSC[C@H](NC(=O)[C@@H](N)CO)C(=O)N[C@@H](CC(N)=O)C(=O)N[C@@H]([C@@H](C)O)C(=O)N[C@@H](CO)C(=O)N[C@@H]([C@@H](C)O)C(=O)N1)[C@@H](C)O)C(=O)N[C@@H](CC(C)C)C(=O)N1CCC[C@H]1C(=O)N1CCC[C@H]1C(=O)N[C@H](C(=O)N[C@@H](CC(N)=O)C(=O)N[C@H](C(=O)NCC(=O)N[C@@H](CO)C(=O)N[C@@H](CC(N)=O)C(=O)N[C@H](C(=O)N[C@@H](Cc1ccc(O)cc1)C(N)=O)[C@@H](C)O)C(C)C)[C@@H](C)O` [Compound A41] (H-SCNTSTCATQRLANELHRSSNEFGPILPPTNVGSNTY-NH2; disulfide 2-7), the clearance under setting [1] came to 17.5 mL/min/kg.
`CC[C@H](C)[C@H](NC(=O)[C@@H]1CCCN1C(=O)CNC(=O)[C@H](Cc1ccccc1)NC(=O)[C@H](CCC(=O)O)NC(=O)[C@H](CC(N)=O)NC(=O)[C@H](CO)NC(=O)[C@H](CO)NC(=O)[C@H](CCCCN)NC(=O)[C@@H](NC(=O)[C@H](CC(C)C)NC(=O)[C@H](Cc1ccccc1)NC(=O)[C@H](CC(N)=O)NC(=O)[C@H](C)NC(=O)[C@H](CC(C)C)NC(=O)[C@H](CCCNC(=N)N)NC(=O)[C@H](CCC(N)=O)NC(=O)[C@@H](NC(=O)[C@H](C)NC(=O)[C@@H]1CSSC[C@H](NC(=O)[C@@H](N)CO)C(=O)N[C@@H](CC(N)=O)C(=O)N[C@@H]([C@@H](C)O)C(=O)N[C@@H](CO)C(=O)N[C@@H]([C@@H](C)O)C(=O)N1)[C@@H](C)O)C(C)C)C(=O)N[C@@H](CC(C)C)C(=O)N1CCC[C@H]1C(=O)N1CCC[C@H]1C(=O)N[C@H](C(=O)N[C@@H](CCCCN)C(=O)N[C@H](C(=O)NCC(=O)N[C@@H](CO)C(=O)N[C@@H](CCC(=O)O)C(=O)N[C@H](C(=O)N[C@@H](Cc1ccc(O)cc1)C(N)=O)[C@@H](C)O)C(C)C)[C@@H](C)O` [Compound A43] (H-SCNTSTCATQRLANFLVKSSNEFGPILPPTKVGSETY-NH2; disulfide 2-7) had a clearance (iv) of 23.2 mL/min/kg.
In the case of `CC[C@H](C)[C@H](NC(=O)[C@@H]1CCCN1C(=O)CNC(=O)[C@H](Cc1ccccc1)NC(=O)[C@H](CC(N)=O)NC(=O)[C@H](CC(N)=O)NC(=O)[C@H](CO)NC(=O)[C@H](CO)NC(=O)[C@H](Cc1c[nH]cn1)NC(=O)[C@@H](NC(=O)[C@H](CC(C)C)NC(=O)[C@H](CCC(=O)O)NC(=O)[C@H](CC(N)=O)NC(=O)[C@H](C)NC(=O)[C@H](CC(C)C)NC(=O)[C@H](CCCNC(=N)N)NC(=O)[C@H](CCC(N)=O)NC(=O)[C@@H](NC(=O)[C@H](C)NC(=O)[C@@H]1CSSC[C@H](NC(=O)[C@@H](N)CO)C(=O)N[C@@H](CC(N)=O)C(=O)N[C@@H]([C@@H](C)O)C(=O)N[C@@H](CO)C(=O)N[C@@H]([C@@H](C)O)C(=O)N1)[C@@H](C)O)C(C)C)C(=O)N[C@@H](CC(C)C)C(=O)N1CCC[C@H]1C(=O)N1CCC[C@H]1C(=O)N[C@H](C(=O)N[C@@H](CC(N)=O)C(=O)N[C@H](C(=O)NCC(=O)N[C@@H](CO)C(=O)N[C@@H](CC(N)=O)C(=O)N[C@H](C(=O)N[C@@H](Cc1ccc(O)cc1)C(N)=O)[C@@H](C)O)C(C)C)[C@@H](C)O` [Compound A44] (H-SCNTSTCATQRLANELVHSSNNFGPILPPTNVGSNTY-NH2; disulfide 2-7), the clearance under setting [1] came to 14.2 mL/min/kg.
As to `CC[C@H](C)[C@H](NC(=O)[C@@H]1CCCN1C(=O)CNC(=O)[C@H](Cc1ccccc1)NC(=O)[C@H](CC(N)=O)NC(=O)[C@H](CC(N)=O)NC(=O)[C@H](CO)NC(=O)[C@H](CO)NC(=O)[C@H](CCCNC(=N)N)NC(=O)[C@H](Cc1c[nH]cn1)NC(=O)[C@H](CC(C)C)NC(=O)[C@H](CCC(=O)O)NC(=O)[C@H](CC(N)=O)NC(=O)[C@H](C)NC(=O)[C@H](CC(C)C)NC(=O)[C@H](CCCNC(=N)N)NC(=O)[C@H](CCC(N)=O)NC(=O)[C@@H](NC(=O)[C@H](C)NC(=O)[C@@H]1CSSC[C@H](NC(=O)[C@@H](N)CO)C(=O)N[C@@H](CC(N)=O)C(=O)N[C@@H]([C@@H](C)O)C(=O)N[C@@H](CO)C(=O)N[C@@H]([C@@H](C)O)C(=O)N1)[C@@H](C)O)C(=O)N[C@@H](CC(C)C)C(=O)N1CCC[C@H]1C(=O)N1CCC[C@H]1C(=O)N[C@H](C(=O)N[C@@H](CC(N)=O)C(=O)N[C@H](C(=O)NCC(=O)N[C@@H](CO)C(=O)N[C@@H](CC(N)=O)C(=O)N[C@H](C(=O)N[C@@H](Cc1ccc(O)cc1)C(N)=O)[C@@H](C)O)C(C)C)[C@@H](C)O` [Compound A45] (H-SCNTSTCATQRLANELHRSSNNFGPILPPTNVGSNTY-NH2; disulfide 2-7), under setting [1], the clearance was 21.1 mL/min/kg.
With `CC[C@H](C)[C@H](NC(=O)[C@@H]1CCCN1C(=O)CNC(=O)[C@H](Cc1ccccc1)NC(=O)[C@H](CC(N)=O)NC(=O)[C@H](CC(N)=O)NC(=O)[C@H](CO)NC(=O)[C@H](CO)NC(=O)[C@H](CCCCN)NC(=O)[C@H](Cc1c[nH]cn1)NC(=O)[C@H](CC(C)C)NC(=O)[C@H](CCC(=O)O)NC(=O)[C@H](CC(N)=O)NC(=O)[C@H](C)NC(=O)[C@H](CC(C)C)NC(=O)[C@H](CCCNC(=N)N)NC(=O)[C@H](CCC(N)=O)NC(=O)[C@@H](NC(=O)[C@H](C)NC(=O)[C@@H]1CSSC[C@H](NC(=O)[C@@H](N)CO)C(=O)N[C@@H](CC(N)=O)C(=O)N[C@@H]([C@@H](C)O)C(=O)N[C@@H](CO)C(=O)N[C@@H]([C@@H](C)O)C(=O)N1)[C@@H](C)O)C(=O)N[C@@H](CC(C)C)C(=O)N1CCC[C@H]1C(=O)N1CCC[C@H]1C(=O)N[C@H](C(=O)N[C@@H](CCCCN)C(=O)N[C@H](C(=O)NCC(=O)N[C@@H](CO)C(=O)N[C@@H](CCC(=O)O)C(=O)N[C@H](C(=O)N[C@@H](Cc1ccc(O)cc1)C(N)=O)[C@@H](C)O)C(C)C)[C@@H](C)O` [Compound A57] (H-SCNTSTCATQRLANELHKSSNNFGPILPPTKVGSETY-NH2; disulfide 2-7), where the note is “iv”, the clearance worked out at 10.7 mL/min/kg.
